From US10294248B2, “Beta-lactamase inhibitors” (VenatoRx Pharmaceuticals, Inc., priority 2013, dated 2019)

How the values were obtained:
[1] = target: T1, KPC-2 β-lactamase (Class A carbapenemase) (Klebsiella pneumoniae, UniProt Q9F663); test: β-Lactamase inhibition, KPC-2; assay type: biochemical; conditions: imipenem substrate, 300 nm; 15 min preincubation at 37° C., PBS pH 7.4
T1 construct: made in house; host or cells: E. coli BL21(DE3)
Procedure, shortened: (§1)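 Untagged enzyme from E. coli BL21(DE3), purified by Capto S then Superdex 75; 15 min 37 °C preincubation with inhibitor; KPC-2 read with imipenem at 300 nm, SHV-5 with cefotaxime at 260 nm, OXA-1 with nitrocefin 100 μM final at 486 nm; 10 min kinetic read; IC50 vs uninhibited wells.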

[2] = test system: P. aeruginosa Ps296 expressing VIM-2; test: Broth microdilution MIC, P. aeruginosa Ps296 VIM-2; assay type: cell-based; conditions: fixed 4 μg/mL meropenem; CAMHB, 16-20 hours at 37° C.
Procedure, shortened: (§2)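 Following CLSI broth microdilution, β-lactamase-producing strains grown 3–5 h were exposed in CAMHB to 2-fold dilutions of test compound (32 to 0.25 μg/mL final). A static 4 μg/mL β-lactam overlay was added. After 16–20 h at 37° C, MIC was scored by eye.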

[3] = target: T2, SHV-5 β-lactamase (Class A ESBL) (Klebsiella pneumoniae, UniProt P0A3M1); test: β-Lactamase inhibition, SHV-5; assay type: biochemical
T2 construct: made in house; host or cells: E. coli BL21(DE3)
Procedure, shortened: as §1

[4] = test system: K. pneumoniae A-1797 expressing KPC-2 and VIM-4; test: Broth microdilution MIC, K. pneumoniae A-1797 KPC-2/VIM-4; assay type: cell-based; conditions: fixed 4 μg/mL meropenem; CAMHB, 16-20 hours at 37° C.
Procedure, shortened: as §2

[5] = target: T3, p99 AmpC β-lactamase (Class C) (Enterobacter cloacae, UniProt P05364); test: β-Lactamase inhibition, p99 AmpC; assay type: biochemical
T3 construct: made in house; host or cells: E. coli BL21(DE3)

[6] = test system: E. cloacae 144200 expressing Class C P99 AmpC; test: Broth microdilution MIC, E. cloacae 144200 p99 AmpC; assay type: cell-based; conditions: fixed 4 μg/mL ceftazidime; CAMHB, 16-20 hours at 37° C.
Procedure, shortened: as §2

[7] = test system: S. aureus MSSA-7 producing penicillinase PC-1; test: Broth microdilution MIC, S. aureus MSSA-7 PC-1; assay type: cell-based; conditions: fixed 4 μg/mL piperacillin; CAMHB, 16-20 hours at 37° C.
Procedure, shortened: as §2

[8] = test system: K. pneumoniae 156319 expressing KPC-3; test: Broth microdilution MIC, K. pneumoniae 156319 KPC-3; assay type: cell-based; conditions: fixed 4 μg/mL meropenem; CAMHB, 16-20 hours at 37° C.
Procedure, shortened: as §2

[9] = target: T4, VIM-2 metallo-β-lactamase (Class B) (Pseudomonas aeruginosa, UniProt Q9K2N0); test: β-Lactamase inhibition, VIM-2; assay type: biochemical; conditions: nitrocefin 100 μM, 486 nm; 15 min preincubation at 37° C., PBS pH 7.4
T4 construct: made in house; host or cells: E. coli BL21(DE3)
Procedure, shortened: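 Nitrocefin hydrolysis (100 μM final, A486 read for 10 min) by purified VIM-2 after a 15-min, 37° C enzyme–inhibitor preincubation. IC50 is the concentration halving initial hydrolysis rate, derived from percent inhibition against no-inhibitor wells.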

[10] = test system: E. coli ESBL4 expressing CTX-M-15; test: Broth microdilution MIC, E. coli ESBL4 CTX-M-15; assay type: cell-based; conditions: fixed 4 μg/mL ceftazidime; CAMHB, 16-20 hours at 37° C.
Procedure, shortened: as §2

[11] = target: T5, OXA-1 β-lactamase (Class D oxacillinase) (Escherichia coli, UniProt P13661); test: β-Lactamase inhibition, OXA-1; assay type: biochemical; conditions: nitrocefin 100 μM, 486 nm; 15 min preincubation at 37° C., PBS pH 7.4
T5 construct: made in house; host or cells: E. coli BL21(DE3)
Procedure, shortened: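 Compounds are mixed with purified, untagged recombinant β-lactamase and held 15 min at 37 °C. Substrate is then added: nitrocefin (100 μM final) for OXA-1, imipenem for KPC-2, cefotaxime for SHV-5. Absorbance is followed immediately, and percent inhibition per concentration gives the IC50.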

T2 sequence (P0A3M1 22-286): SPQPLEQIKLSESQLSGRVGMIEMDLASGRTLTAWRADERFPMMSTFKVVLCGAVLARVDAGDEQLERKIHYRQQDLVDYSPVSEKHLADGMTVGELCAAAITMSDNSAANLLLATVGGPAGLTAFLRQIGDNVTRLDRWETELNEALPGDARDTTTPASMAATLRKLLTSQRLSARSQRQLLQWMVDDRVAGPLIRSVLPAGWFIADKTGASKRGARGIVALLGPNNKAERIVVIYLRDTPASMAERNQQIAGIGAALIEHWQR
T1 sequence (Q9F663 25-293, looked up): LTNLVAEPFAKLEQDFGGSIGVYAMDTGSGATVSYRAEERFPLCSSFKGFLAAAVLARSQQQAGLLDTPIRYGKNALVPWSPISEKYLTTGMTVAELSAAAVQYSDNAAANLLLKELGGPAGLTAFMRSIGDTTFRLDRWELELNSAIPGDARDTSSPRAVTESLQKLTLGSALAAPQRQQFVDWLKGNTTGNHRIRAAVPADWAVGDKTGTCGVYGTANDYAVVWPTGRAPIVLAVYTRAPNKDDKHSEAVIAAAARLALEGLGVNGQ
T3 sequence (P05364 21-381): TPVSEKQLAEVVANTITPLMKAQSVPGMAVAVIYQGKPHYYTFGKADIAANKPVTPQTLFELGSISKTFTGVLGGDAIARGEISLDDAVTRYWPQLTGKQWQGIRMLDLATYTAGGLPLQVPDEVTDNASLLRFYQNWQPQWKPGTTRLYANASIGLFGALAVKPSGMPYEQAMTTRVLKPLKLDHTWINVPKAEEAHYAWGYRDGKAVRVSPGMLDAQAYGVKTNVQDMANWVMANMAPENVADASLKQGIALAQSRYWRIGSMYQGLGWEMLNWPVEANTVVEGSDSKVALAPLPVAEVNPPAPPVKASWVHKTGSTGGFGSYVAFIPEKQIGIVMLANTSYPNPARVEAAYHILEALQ
T5 sequence (P13661 26-276): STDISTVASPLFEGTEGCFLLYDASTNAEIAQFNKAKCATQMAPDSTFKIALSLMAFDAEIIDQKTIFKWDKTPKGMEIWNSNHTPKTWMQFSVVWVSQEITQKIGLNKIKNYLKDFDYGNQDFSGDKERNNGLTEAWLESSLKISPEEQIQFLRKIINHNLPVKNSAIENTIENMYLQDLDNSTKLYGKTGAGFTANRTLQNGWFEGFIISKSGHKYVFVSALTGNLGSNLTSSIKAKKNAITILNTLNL

Row | SMILES | IC50 [1] [nM] | MIC of example compound in presence of fixed β-lactam: Fixed Mero, P. aerug. Ps296 VIM-2 [2] | IC50 [3] [nM] | MIC of example compound in presence of fixed β-lactam: Fixed Mero, K. P. A-1797 KPC-2 VIM-4 [4] | IC50 [5] [nM] | MIC of example compound in presence of fixed β-lactam: Fixed CAZ, E. cl. 144200 p99 AmpC [6] | MIC of example compound in presence of fixed β-lactam: Fixed Pip, S. aureus MSSA-7 PC-1 [7] | MIC of example compound in presence of fixed β-lactam: Fixed Mero, K. P. 156319 KPC-3 [8] | IC50 [9] [nM] | MIC of example compound in presence of fixed β-lactam: Fixed CAZ, E. coli ESBL4 CTX-M-15 [10] | IC50 [11] [nM]
1 | N[C@@H]1CCCN(CC(=O)N[C@H]2Cc3cccc(C(=O)O)c3OB2O)C1 [Example 10, 3-[2-(R-3-Amino-piperidin-1-yl)-acetylamino]-2-hydroxy-3,4-dihydro-2H-benzo[e][1,2]oxaborinine-8-carboxylic acid] | 100 to 1000 | A (an MIC of the fixed β-lactam antibiotic in the presence of >32 μg/mL of a β-lactamase inhibitor) | < 100 | C (the MIC in the presence of <4 μg/mL of a β-lactamase inhibitor) | < 100 | C (the MIC in the presence of <4 μg/mL of a β-lactamase inhibitor) | B (the MIC in the presence of between 8 and 32 μg/mL of a β-lactamase inhibitor) | C (the MIC in the presence of <4 μg/mL of a β-lactamase inhibitor) | 1000 to 10000 | C (the MIC in the presence of <4 μg/mL of a β-lactamase inhibitor) | 100 to 1000
2 | O=C(CN1CCC(O)CC1)N[C@H]1Cc2cccc(C(=O)O)c2OB1O [Example 12, 2-Hydroxy-3-[2-(4-hydroxy-piperidin-1-yl)-acetylamino]-3,4-dihydro-2H-benzo[e][1,2]oxaborinine-8-carboxylic acid] | < 100 | B (the MIC in the presence of between 8 and 32 μg/mL of a β-lactamase inhibitor) | < 100 | B (the MIC in the presence of between 8 and 32 μg/mL of a β-lactamase inhibitor) | < 100 | C (the MIC in the presence of <4 μg/mL of a β-lactamase inhibitor) | C (the MIC in the presence of <4 μg/mL of a β-lactamase inhibitor) | C (the MIC in the presence of <4 μg/mL of a β-lactamase inhibitor) | 100 to 1000 | C (the MIC in the presence of <4 μg/mL of a β-lactamase inhibitor) | < 100
3 | O=C(O)c1cccc2c1OB(O)[C@@H](NC(=O)C1CNCCN1)C2 (some centres unmarked) [Example 50, 2-Hydroxy-3-[(piperazine-2-carbonyl)-amino]-3,4-dihydro-2H-benzo[e][1,2]oxaborinine-8-carboxylic acid] | < 100 | C (the MIC in the presence of <4 μg/mL of a β-lactamase inhibitor) | < 100 | A (an MIC of the fixed β-lactam antibiotic in the presence of >32 μg/mL of a β-lactamase inhibitor) | < 100 | C (the MIC in the presence of <4 μg/mL of a β-lactamase inhibitor) | C (the MIC in the presence of <4 μg/mL of a β-lactamase inhibitor) | C (the MIC in the presence of <4 μg/mL of a β-lactamase inhibitor) | 1000 to 10000 | C (the MIC in the presence of <4 μg/mL of a β-lactamase inhibitor) | < 100
4 | O=C(CNC1CCNCC1)N[C@H]1Cc2cccc(C(=O)O)c2OB1O [Example 40, 2-Hydroxy-3-[2-(piperidin-4-ylamino)-acetylamino]-3,4-dihydro-2H-benzo[e][1,2]oxaborinine-8-carboxylic acid] | 100 to 1000 | C (the MIC in the presence of <4 μg/mL of a β-lactamase inhibitor) | < 100 | B (the MIC in the presence of between 8 and 32 μg/mL of a β-lactamase inhibitor) | < 100 | C (the MIC in the presence of <4 μg/mL of a β-lactamase inhibitor) | C (the MIC in the presence of <4 μg/mL of a β-lactamase inhibitor) | B (the MIC in the presence of between 8 and 32 μg/mL of a β-lactamase inhibitor) | 100 to 1000 | C (the MIC in the presence of <4 μg/mL of a β-lactamase inhibitor) | < 100
5 | NC1(C(=O)N[C@H]2Cc3cccc(C(=O)O)c3OB2O)CCNCC1 [Example 49, 3-[(4-Amino-piperidine-4-carbonyl)-amino]-2-hydroxy-3,4-dihydro-2H-benzo[e][1,2]oxaborinine-8-carboxylic acid] | < 100 | B (the MIC in the presence of between 8 and 32 μg/mL of a β-lactamase inhibitor) | < 100 | A (an MIC of the fixed β-lactam antibiotic in the presence of >32 μg/mL of a β-lactamase inhibitor) | < 100 | C (the MIC in the presence of <4 μg/mL of a β-lactamase inhibitor) | C (the MIC in the presence of <4 μg/mL of a β-lactamase inhibitor) | C (the MIC in the presence of <4 μg/mL of a β-lactamase inhibitor) | 1000 to 10000 | C (the MIC in the presence of <4 μg/mL of a β-lactamase inhibitor) | < 100
6 | O=C(CN1CCNCC1=O)N[C@H]1Cc2cccc(C(=O)O)c2OB1O [Example 8, 2-Hydroxy-3-[2-(2-oxo-piperazin-1-yl)-acetylamino]-3,4-dihydro-2H-benzo[e][1,2]oxaborinine-8-carboxylic acid] | 100 to 1000 | A (an MIC of the fixed β-lactam antibiotic in the presence of >32 μg/mL of a β-lactamase inhibitor) | 10000 to 100000 | A (an MIC of the fixed β-lactam antibiotic in the presence of >32 μg/mL of a β-lactamase inhibitor) | < 100 | C (the MIC in the presence of <4 μg/mL of a β-lactamase inhibitor) | C (the MIC in the presence of <4 μg/mL of a β-lactamase inhibitor) | C (the MIC in the presence of <4 μg/mL of a β-lactamase inhibitor) | 1000 to 10000 | C (the MIC in the presence of <4 μg/mL of a β-lactamase inhibitor) | < 100
7 | O=C(O)c1cccc2c1OB(O)[C@@H](NC(=O)C1CN(c3ncccn3)C1)C2 [Example 48, (R)-2-hydroxy-3-(1-(pyrimidin-2-yl)azetidine-3-carboxamido)-3,4-dihydro-2H-benzo[e][1,2]oxaborinine-8-carboxylic acid] | < 100 | C (the MIC in the presence of <4 μg/mL of a β-lactamase inhibitor) | < 100 | B (the MIC in the presence of between 8 and 32 μg/mL of a β-lactamase inhibitor) | < 100 | C (the MIC in the presence of <4 μg/mL of a β-lactamase inhibitor) | C (the MIC in the presence of <4 μg/mL of a β-lactamase inhibitor) | C (the MIC in the presence of <4 μg/mL of a β-lactamase inhibitor) | 1000 to 10000 | C (the MIC in the presence of <4 μg/mL of a β-lactamase inhibitor) | < 100
